Measured values: PubChem BioAssay AID256 (DTP/NCI, 2004)
“And” between values parts separate entries of the source, which are not always exact repeats. Identical values can stand only once. Toxic doses and inconclusive results are not listed.

Test system: CD2F1 mice, L1210 leukemia ip, survival T/C
Assay: NCI In Vivo Anticancer Drug Screen. Data for tumor model L1210 Leukemia (intraperitoneal) in CD2F1 (CDF1) mice
Details: endpoint: mean survival time, higher = longer survival
Outline: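 Each value reflects a quotient of treated over vehicle control outcomes in mice with a transplanted tumor.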

[1] = dose: 3.12 mg/kg/injection, schedule: Q01DX009 (ip), vehicle: saline
[2] = dose: 6.25 mg/kg/injection, schedule: Q01DX009 (ip), vehicle: saline
[3] = dose: 12.5 mg/kg/injection, schedule: Q01DX009 (ip), vehicle: saline
[4] = dose: 25.0 mg/kg/injection, schedule: Q01DX009 (ip), vehicle: saline with Tween-80
[5] = dose: 25.0 mg/kg/injection, schedule: Q01DX009 (ip), vehicle: saline
[6] = dose: 50.0 mg/kg/injection, schedule: Q01DX009 (ip), vehicle: saline with Tween-80
[7] = dose: 50.0 mg/kg/injection, schedule: Q01DX009 (ip), vehicle: saline
[8] = dose: 100.0 mg/kg/injection, schedule: Q01DX009 (ip), vehicle: saline with Tween-80
[9] = dose: 100.0 mg/kg/injection, schedule: Q01DX009 (ip), vehicle: saline
[10] = dose: 100.0 mg/kg/injection, schedule: Q04DX003 (ip), vehicle: saline with Tween-80
[11] = dose: 200.0 mg/kg/injection, schedule: Q04DX003 (ip), vehicle: saline with Tween-80
[12] = dose: 400.0 mg/kg/injection, schedule: Q04DX003 (ip), vehicle: saline with Tween-80
[13] = dose: 200.0 mg/kg/injection, schedule: Q01DX009 (ip), vehicle: saline with Tween-80
[14] = dose: 400.0 mg/kg/injection, schedule: Q01DX009 (ip), vehicle: saline with Tween-80
[15] = dose: 100.0 mg/kg/injection, schedule: Q01DX001 (ip), vehicle: saline with Tween-80
[16] = dose: 400.0 mg/kg/injection, schedule: Q01DX001 (ip), vehicle: saline with Tween-80
[17] = dose: 75.0 mg/kg/injection, schedule: Q04DX002 (ip), vehicle: saline with Tween-80
[18] = dose: 25.0 mg/kg/injection, schedule: Q04DX002 (ip), vehicle: saline with Tween-80
[19] = dose: 50.0 mg/kg/injection, schedule: Q04DX002 (ip), vehicle: saline with Tween-80

CC1=C(C)C(=O)O[C@@H]([C@](C)(O)[C@]2(O)CC[C@@]3(O)[C@@H]4C[C@H]5O[C@]56CC=CC(=O)[C@]6(C)[C@H]4CC[C@]23C)C1
T/C (dose: 3.12 mg/kg/injection, schedule: Q01DX009 (ip), vehicle: saline with Tween-80): 104 % of control
T/C [1]: 112 % of control
T/C (dose: 6.25 mg/kg/injection, schedule: Q01DX009 (ip), vehicle: saline with Tween-80): 105 % of control
T/C [2]: 123 % of control
T/C [3]: 112 % of control
T/C [4]: 107 % of control
T/C [5]: 110 % of control
T/C [6]: 115 % of control
T/C [7]: 98 % of control
T/C [8]: 107 % of control
T/C [9]: 93 % of control

O=S(CS(=O)c1ccccc1)c1ccccc1 (stereo unspecified)
T/C [10]: 100 % of control
T/C [11]: 109 % of control
T/C [12]: 105 % of control

CC[C@H]1CN2CCc3cc(OC)c(OC)cc3[C@@H]2C[C@@H]1C[C@@H]1c2cc(OC)c(OC)cc2CCN1N=O
T/C [3]: 104 % of control
T/C [5]: 104 % of control
T/C (dose: 25.0 mg/kg/injection, schedule: Q04DX003 (ip), vehicle: saline): 100 % of control
T/C [7]: 107 % of control
T/C (dose: 50.0 mg/kg/injection, schedule: Q04DX003 (ip), vehicle: saline): 95 % of control

N#Cc1ccc2cn[nH]c2c1
T/C [8]: 98 % of control
T/C [13]: 96 % of control
T/C [14]: 92 % of control

O=c1[nH]cc(NCCCc2ccccc2)c(=O)[nH]1
T/C [10]: 102 % of control
T/C [11]: 104 % of control
T/C [12]: 96 % of control

O=c1oc(-c2ccccc2Cl)nc2cc(Cl)ccc12
T/C [10]: 101 % of control
T/C [11]: 94 % of control

OCC1OC(n2ncc3c(Nc4ccccc4)ncnc32)C(O)C1O (stereo unspecified)
T/C (dose: 6.25 mg/kg/injection, schedule: Q01DX005 (ip), vehicle: other): 97 % of control
T/C (dose: 12.5 mg/kg/injection, schedule: Q01DX005 (ip), vehicle: other): 91 % of control
T/C (dose: 25.0 mg/kg/injection, schedule: Q01DX005 (ip), vehicle: other): 100 % of control
T/C (dose: 50.0 mg/kg/injection, schedule: Q01DX005 (ip), vehicle: other): 96 % of control
T/C (dose: 100.0 mg/kg/injection, schedule: Q01DX005 (ip), vehicle: other): 92 % of control
T/C (dose: 200.0 mg/kg/injection, schedule: Q01DX005 (ip), vehicle: other): 96 % of control
T/C (dose: 400.0 mg/kg/injection, schedule: Q01DX005 (ip), vehicle: other): 96 % of control

O=C1N(CCc2ccccc2)CC2C(c3ccccc3)NNC12O (stereo unspecified)
T/C [15]: 96 % of control
T/C (dose: 200.0 mg/kg/injection, schedule: Q01DX001 (ip), vehicle: saline with Tween-80): 87 % of control
T/C [16]: 87 % of control

NCCOS(=O)(=O)O
T/C [5]: 102 % of control
T/C [7]: 98 % of control
T/C [9]: 96 % of control

ClCC[Se](Cl)(Cl)c1ccccc1
T/C (dose: 0.78 mg/kg/injection, schedule: Q01DX009 (ip), vehicle: saline): 96 % of control and 110 % of control
T/C (dose: 1.56 mg/kg/injection, schedule: Q01DX009 (ip), vehicle: saline): 108 % of control
T/C [1]: 108 % of control and 112 % of control
T/C [2]: 115 % of control and 122 % of control

O/N=c1/ccn(O)c2ccccc12
T/C (dose: 0.25 mg/kg/injection, schedule: Q03HX024 (ip), vehicle: saline): 104 % of control
T/C (dose: 0.5 mg/kg/injection, schedule: Q03HX008 (ip), vehicle: saline): 112 % of control
T/C (dose: 0.5 mg/kg/injection, schedule: Q03HX016 (ip), vehicle: saline): 104 % of control
T/C (dose: 0.5 mg/kg/injection, schedule: Q03HX024 (ip), vehicle: saline): 116 % of control
T/C (dose: 1.0 mg/kg/injection, schedule: Q01DX009 (ip), vehicle: saline): 123 % of control
T/C (dose: 1.0 mg/kg/injection, schedule: Q03HX008 (ip), vehicle: saline): 113 % of control
T/C (dose: 1.0 mg/kg/injection, schedule: Q03HX016 (ip), vehicle: saline): 113 % of control
T/C (dose: 2.0 mg/kg/injection, schedule: Q03HX024 (ip), vehicle: saline): 123 % of control
T/C (dose: 16.0 mg/kg/injection, schedule: Q01DX001 (ip), vehicle: saline): 124 % of control
T/C (dose: 16.0 mg/kg/injection, schedule: Q04DX003 (ip), vehicle: saline): 96 % of control
T/C (dose: 16.0 mg/kg/injection, schedule: Q08DX002 (ip), vehicle: saline): 109 % of control
T/C (dose: 32.0 mg/kg/injection, schedule: Q08DX002 (ip), vehicle: saline): 88 % of control

CC(=O)N(c1ccccc1)C1CCC2(C)C(=CCC3C2CCC2(C)C(C(C)CCCC(C)C)CCC32)C1 (stereo unspecified)
T/C (dose: 100.0 mg/kg/injection, schedule: Q01DX009 (sc), vehicle: steriod suspending solution): 96 % of control
T/C (dose: 100.0 mg/kg/injection, schedule: Q04DX003 (sc), vehicle: steriod suspending solution): 95 % of control
T/C (dose: 200.0 mg/kg/injection, schedule: Q01DX009 (sc), vehicle: steriod suspending solution): 102 % of control
T/C (dose: 200.0 mg/kg/injection, schedule: Q04DX003 (sc), vehicle: steriod suspending solution): 93 % of control
T/C (dose: 400.0 mg/kg/injection, schedule: Q01DX009 (sc), vehicle: steriod suspending solution): 102 % of control
T/C (dose: 400.0 mg/kg/injection, schedule: Q04DX003 (sc), vehicle: steriod suspending solution): 96 % of control

Cc1ccc[n+](CCc2c[nH]c3ccccc23)c1
T/C (dose: 12.5 mg/kg/injection, schedule: Q01DX009 (ip), vehicle: saline with Tween-80): 100 % of control
T/C [4]: 96 % of control
T/C (dose: 25.0 mg/kg/injection, schedule: Q04DX003 (ip), vehicle: saline with Tween-80): 98 % of control
T/C [6]: 101 % of control
T/C (dose: 50.0 mg/kg/injection, schedule: Q04DX003 (ip), vehicle: saline with Tween-80): 95 % of control

CCCCCCCCCCCCCCCCCCSc1ccc(Br)cc1
T/C [15]: 92 % of control
T/C [16]: 86 % of control

CN(C)/N=N\c1ncn(C2OC(CO)C(O)C2O)c1C(N)=O (stereo unspecified)
T/C (dose: 100.0 mg/kg/injection, schedule: Q01DX005 (ip), vehicle: saline): 123 % of control

C=C1C(C)C2C(Cc3ccccc3)NC(=O)C23C(OC(C)=O)C=CC(C)(O)C(=O)C(C)C/C=C/C3C1O (stereo unspecified)
T/C (dose: 0.63 mg/kg/injection, schedule: Q01DX009 (ip), vehicle: Klucel (hydroxypropylcellulose) (HPC)): 101 % of control
T/C (dose: 1.25 mg/kg/injection, schedule: Q01DX009 (ip), vehicle: Klucel (hydroxypropylcellulose) (HPC)): 101 % of control
T/C (dose: 2.5 mg/kg/injection, schedule: Q01DX009 (ip), vehicle: Klucel (hydroxypropylcellulose) (HPC)): 95 % of control
T/C (dose: 5.0 mg/kg/injection, schedule: Q01DX009 (ip), vehicle: Klucel (hydroxypropylcellulose) (HPC)): 98 % of control

CCOC/C=C\C1=CCCCC1
T/C [6]: 97 % of control
T/C [8]: 114 % of control
T/C [13]: 105 % of control

Cn1nc(NC=O)c(C#N)c1C#N
T/C (dose: 37.5 mg/kg/injection, schedule: Q04DX002 (ip), vehicle: saline with Tween-80): 102 % of control
T/C [17]: 102 % of control
T/C (dose: 150.0 mg/kg/injection, schedule: Q04DX002 (ip), vehicle: saline with Tween-80): 98 % of control

CCCCCCCCCCCCCCCCCC(=O)Nc1ccn(C2OC(CO)C(O)C2O)c(=O)n1 (stereo unspecified)
T/C [18]: 229 % of control and 252 % of control
T/C [19]: 271 % of control and 325 % of control
T/C [17]: 365 % of control
T/C (dose: 100.0 mg/kg/injection, schedule: Q04DX002 (ip), vehicle: saline with Tween-80): 273 % of control and 313 % of control
T/C (dose: 200.0 mg/kg/injection, schedule: Q04DX002 (ip), vehicle: saline with Tween-80): 122 % of control
T/C (dose: 400.0 mg/kg/injection, schedule: Q04DX002 (ip), vehicle: saline with Tween-80): 110 % of control

O=C(O)c1ccccc1C(=O)N1CCCCC1
T/C (dose: 12.5 mg/kg/injection, schedule: Q04DX002 (ip), vehicle: saline with Tween-80): 94 % of control
T/C [18]: 90 % of control
T/C [19]: 110 % of control

CN1CCN(c2ccccc2)CC1
T/C (dose: 100.0 mg/kg/injection, schedule: Q01DX001 (ip), vehicle: saline): 112 % of control

O=C(NC(O)C(Cl)(Cl)Cl)C(Cl)(Cl)Cl (stereo unspecified)
T/C [8]: 89 % of control
T/C [10]: 104 % of control
T/C [13]: 100 % of control
T/C [11]: 105 % of control
T/C [14]: 107 % of control
T/C [12]: 104 % of control
